Reference: article PMC12396409, “Screening and hit evaluation of a microbial metabolite library against the pathogenic Plasmodium falciparum and Toxoplasma gondii parasites” (International Journal for Parasitology: Drugs and Drug …, 2025)
Where two headings read alike, the source gives them in different places.

What was measured:
[1] = tested on: P. falciparum 3D7 parasites; test: P. falciparum growth inhibition assay, 1-cycle (72 h treatment), SYBR DNA staining (library screen at 2 μg/mL and dose-response); assay type: cell-based, Plasmodium falciparum; details: for activity at 2 µg/mL: Plasmodium falciparum, 3D7
[2] = tested on: T. gondii RH strain (RH-Tub-eYFP) tachyzoites; test: microbe, parasite or virus in culture; assay type: cell-based, Toxoplasma gondii; details: 72 h; for percent parasite growth at 2 µg/mL: Toxoplasma gondii
[3] = tested on: P. falciparum 3D7 parasites; test: P. falciparum growth inhibition assay, 2-cycle (120 h treatment), delayed-death screen and dose-response; assay type: cell-based, Plasmodium falciparum; details: for activity at 2 µg/mL: Plasmodium falciparum, 3D7
[4] = library screen at 2 μg/mL, 72 h, % growth, replicate 1
[5] = library screen at 2 μg/mL, 72 h, % growth, replicate 2
[6] = library screen at 2 μg/mL, % growth, replicate 1
[7] = library screen at 2 μg/mL, % growth, replicate 2
[8] = library screen at 2 μg/mL, 120 h, % growth, replicate 1
[9] = library screen at 2 μg/mL, 120 h, % growth, replicate 2

## CCCCCC[C@H]1C(=O)O[C@H](C)[C@H](NC(=O)c2cccc(NC=O)c2O)C(=O)O[C@@H](C)[C@@H]1OC(=O)CC(C)C [Antimycin A1]
[1]; [4]
  Pf_72h_%Growth_Rep1: 7.57%
[1]; [5]
  Pf_72h_%Growth_Rep2: 13.46%
[2]; [6]
  Tg_72h_%Growth_Rep1: 5.65%
[2]; [7]
  Tg_72h_%Growth_Rep2: 4.89%
[3]; [8]
  Pf_120h_%Growth_Rep1: -1.25%
[3]; [9]
  Pf_120h_%Growth_Rep2: 6.08%

## COc1c(O)cc2cc(C)oc(=O)c2c1O [Reticulol]
[1]; P. falciparum, 72 h, parasite screen 2 μg/mL, % growth, replicate 1
  Pf_72h_%Growth_Rep1: 1.99%
[1]; P. falciparum, 72 h, parasite screen 2 μg/mL, % growth, replicate 2
  Pf_72h_%Growth_Rep2: 0.81%
[2]; T. gondii, parasite screen 2 μg/mL, % growth, replicate 1
  Tg_72h_%Growth_Rep1: 97.11%
[2]; T. gondii, parasite screen 2 μg/mL, % growth, replicate 2
  Tg_72h_%Growth_Rep2: 97.69%
[3]; P. falciparum, 120 h, parasite screen 2 μg/mL, % growth, replicate 1
  Pf_120h_%Growth_Rep1: -0.78%
[3]; P. falciparum, 120 h, parasite screen 2 μg/mL, % growth, replicate 2
  Pf_120h_%Growth_Rep2: 4.83%

## C=C(C)[C@@H]1CC[C@]2(C(=O)O)CC[C@]3(C)[C@H](CC[C@@H]4[C@@]5(C)CC[C@H](O)C(C)(C)[C@@H]5CC[C@]43C)[C@@H]12 [Betulinic acid]
[1]; library screen at 2 μg/mL, 72 h, % growth, replicate 1, read-out: Pf_72h_%Growth_Rep1
  activity at 2 µg/mL: 73.8%
[1]; library screen at 2 μg/mL, 72 h, % growth, replicate 2, read-out: Pf_72h_%Growth_Rep2
  activity at 2 µg/mL: 76.9%
[2]; library screen at 2 μg/mL, % growth, replicate 1, read-out: Tg_72h_%Growth_Rep1
  percent parasite growth at 2 µg/mL: 107%
[2]; library screen at 2 μg/mL, % growth, replicate 2, read-out: Tg_72h_%Growth_Rep2
  percent parasite growth at 2 µg/mL: 88%
[3]; library screen at 2 μg/mL, 120 h, % growth, replicate 1, read-out: Pf_120h_%Growth_Rep1
  activity at 2 µg/mL: 70.3%
[3]; library screen at 2 μg/mL, 120 h, % growth, replicate 2, read-out: Pf_120h_%Growth_Rep2
  activity at 2 µg/mL: 59.9%

## Oc1cccc2nc3ccccc3nc12 [BIA-H1520]
[1]; P. falciparum 3D7, 72 h, library screen at 2 μg/mL, % growth, replicate 1
  Pf_72h_%Growth_Rep1: 84.93%
[1]; P. falciparum 3D7, 72 h, library screen at 2 μg/mL, % growth, replicate 2
  Pf_72h_%Growth_Rep2: 98.32%
[2]; T. gondii RH, library screen at 2 μg/mL, % growth, replicate 1
  Tg_72h_%Growth_Rep1: 90.90%
[2]; T. gondii RH, library screen at 2 μg/mL, % growth, replicate 2
  Tg_72h_%Growth_Rep2: 78.11%
[3]; P. falciparum 3D7, 120 h, library screen at 2 μg/mL, % growth, replicate 1
  Pf_120h_%Growth_Rep1: 70.83%
[3]; P. falciparum 3D7, 120 h, library screen at 2 μg/mL, % growth, replicate 2
  Pf_120h_%Growth_Rep2: 82.39%

## CCCC[C@@]1(OC(=O)CCC(=O)O)CC[C@]2(CC[C@H](C)[C@@H](C/C=C(C)/C=C/[C@H](O)[C@@H](C)/C=C/C(=O)O)O2)O[C@H]1/C=C/C(C)=C/C(=O)O [Reveromycin A]
[1]; P. falciparum, 72 h, parasite screen 2 μg/mL, % growth, replicate 1, read-out: Pf_72h_%Growth_Rep1
  activity at 2 µg/mL: 75.9%
[1]; P. falciparum, 72 h, parasite screen 2 μg/mL, % growth, replicate 2, read-out: Pf_72h_%Growth_Rep2
  activity at 2 µg/mL: 65.4%
[2]; T. gondii, parasite screen 2 μg/mL, % growth, replicate 1, read-out: Tg_72h_%Growth_Rep1
  percent parasite growth at 2 µg/mL: 119%
[2]; T. gondii, parasite screen 2 μg/mL, % growth, replicate 2, read-out: Tg_72h_%Growth_Rep2
  percent parasite growth at 2 µg/mL: 88.8%
[3]; P. falciparum, 120 h, parasite screen 2 μg/mL, % growth, replicate 1, read-out: Pf_120h_%Growth_Rep1
  activity at 2 µg/mL: 69.8%
[3]; P. falciparum, 120 h, parasite screen 2 μg/mL, % growth, replicate 2, read-out: Pf_120h_%Growth_Rep2
  activity at 2 µg/mL: 88.5%

## CC(/C=C/C1CC=CC(=O)O1)=C\C(C)C/C=C/C(C)=C/C(C)C(=O)C(C)C(O)C(C)C/C(C)=C/C(=O)O (stereo not drawn) [Anguinomycin A]
[1]; [4]
  Pf_72h_%Growth_Rep1: 77.34%
[1]; [5]
  Pf_72h_%Growth_Rep2: 87.20%
[2]; [6]
  Tg_72h_%Growth_Rep1: 87.81%
[2]; [7]
  Tg_72h_%Growth_Rep2: 87.77%
[3]; [8]
  Pf_120h_%Growth_Rep1: 145.35%
[3]; [9]
  Pf_120h_%Growth_Rep2: 79.09%

## COc1c(CC(C)O)c2c3c(CC(C)O)c(OC)c(=O)c4c(O)cc5c(c6c(cc(O)c(c1=O)c62)OCO5)c43 (stereo not drawn) [Cercosporin]
[1]; P. falciparum, 72 h, screen at 2 μg/mL, replicate 1, read-out: Pf_72h_%Growth_Rep1
  activity at 2 µg/mL: 9.71%
[1]; P. falciparum, 72 h, screen at 2 μg/mL, replicate 2, read-out: Pf_72h_%Growth_Rep2
  activity at 2 µg/mL: 9.49%
[2]; T. gondii, screen at 2 μg/mL, replicate 1, read-out: Tg_72h_%Growth_Rep1
  percent parasite growth at 2 µg/mL: 4.15%
[2]; T. gondii, screen at 2 μg/mL, replicate 2, read-out: Tg_72h_%Growth_Rep2
  percent parasite growth at 2 µg/mL: 11.5%
[3]; P. falciparum, 120 h, screen at 2 μg/mL, replicate 1, read-out: Pf_120h_%Growth_Rep1
  activity at 2 µg/mL: 7.99%
[3]; P. falciparum, 120 h, screen at 2 μg/mL, replicate 2, read-out: Pf_120h_%Growth_Rep2
  activity at 2 µg/mL: 4.28%

## CN(C)[C@@H]1C(O)=C(C(N)=O)C(=O)[C@@]2(O)C(O)=C3C(=O)c4c(O)cccc4[C@@](C)(O)[C@H]3[C@H](O)[C@@H]12 [BIA-O1336]
[1]; P. falciparum 3D7, 72 h, parasite screen at 2 μg/mL, % growth, replicate 1
  Pf_72h_%Growth_Rep1: 45.04%
[1]; P. falciparum 3D7, 72 h, parasite screen at 2 μg/mL, % growth, replicate 2
  Pf_72h_%Growth_Rep2: 49.67%
[2]; T. gondii, parasite screen at 2 μg/mL, % growth, replicate 1
  Tg_72h_%Growth_Rep1: 105.05%
[2]; T. gondii, parasite screen at 2 μg/mL, % growth, replicate 2
  Tg_72h_%Growth_Rep2: 93.22%
[3]; P. falciparum 3D7, 120 h, parasite screen at 2 μg/mL, % growth, replicate 1
  Pf_120h_%Growth_Rep1: 15.40%
[3]; P. falciparum 3D7, 120 h, parasite screen at 2 μg/mL, % growth, replicate 2
  Pf_120h_%Growth_Rep2: 14.90%

## CO[C@H]1C[C@H](O[C@H]2[C@H](C)O[C@@H](O[C@@H]3/C(C)=C/C[C@@H]4C[C@@H](C[C@]5(C=C[C@H](C)[C@@H](C(C)C)O5)O4)OC(=O)[C@@H]4C=C(C)[C@@H](O)[C@H]5OC/C(=C\C=C\[C@@H]3C)[C@]54O)C[C@@H]2OC)O[C@@H](C)[C@@H]1O [Avermectin B1b]
[1]; [4]
  Pf_72h_%Growth_Rep1: 8.18%
[1]; [5]
  Pf_72h_%Growth_Rep2: 3.73%
[2]; [6]
  Tg_72h_%Growth_Rep1: 74.43%
[2]; [7]
  Tg_72h_%Growth_Rep2: 75.78%
[3]; [8]
  Pf_120h_%Growth_Rep1: 7.97%
[3]; [9]
  Pf_120h_%Growth_Rep2: -7.80%
